Patent US20240024509A1, “COMPOSITIONS AND METHODS FOR TREATING CEREBROSPINAL FLUID DISORDERS” (The Children's Medical Center Corporation, priority 2021, published 2024)
Blank lines part the entries; values can stand above or below the compound they belong to.

What was measured:
[1] = tested on: choroid plexus (ChP) epithelial cells; experiment: Calcium imaging of LV ChP explants exposed to plasma; format: cell-based, mouse; conditions: LV ChP explant, FoxJ1-Cre::GCaMP6f mice
Method: […] Imaging and analyses were performed as described (12). Plasma (using citrate as anti-coagulant instead of EDTA, same protocol as described above) was delivered to explants by topical application from a glass capillary needle and serum was delivered to the lateral ventricle of live mice during imaging through the injection cannula. Serum was prepared by collecting blood using the same approach as described above, incubating on ice for 30 min. and then centrifuging for 10 min. at 5,000 g twice to separate the supernatant.

[2] = tested on: NKCC1; experiment: LiCl ICV pretreatment in adult IVH model, ChP pNKCC1 immunoblot; format: in vivo, mouse; conditions: adult mice; ICV LiCl 50 mM, 5 μL, 30 min. prior to blood; after 48 hrs
Source text: P4: pups were anesthetized by hypothermia. An incision was made along the midline of the scalp to expose the skull. A 26 G needle was used to pierce the skull directly above the lateral ventricle. AAV solution or age-matched whole blood was delivered into the lateral ventricle through the piercing using glass capillary pipettes. The skin incision was closed with suture and Vetbond (3M, Minnesota). The pup was warmed and returned to cage after recovery. Whole blood was collected transcardially from littermates anesthetized by hypothermia. Adult: adult intracerebroventricular (ICV) injection followed similar procedures as P4 with the following exceptions: (1) adult mice were anesthetized using isoflurane; (2) a hand drill was used directly above the lateral ventricle; (3) blood donor was anesthetized using ketamine/xylazine.
Tissues were quickly dissected in cold HBSS and homogenized in RIPA buffer supplemented with protease and phosphatase inhibitors. The homogenate was centrifuged at maximum speed for 10 min. to remove cellular debris. Protein concentration was determined by BCA assay (Thermo Scientific 23227). Samples were denatured in 2% SDS supplemented with 2-Mercaptoethanol by heating at 37° C. for 5 min. […] Band intensity was quantified by FIJI.

[3] = tested on: intraventricular hemorrhage (IVH) model; experiment: E14.5 IVH model with calcium signaling disruption (LiCl pretreatment or EDTA), MRI and infusion test; format: in vivo, mouse
Source text: Timed pregnant mice (E14.5) were anesthetized with isoflurane and kept warm. Following laparotomy, AAV solution or age-matched whole blood was delivered into the lateral ventricle of each embryo (located visually) using glass capillary pipettes. The uterine horns were returned to the abdomen and the incisions sutured. When age-matched whole blood was used, the donor mouse was anesthetized with ketamine/xylazine and warmed. Fresh blood was obtained from the jugular veins with a glass capillary pipette and immediately delivered to the recipient.
Mice were imaged using Bruker BioSpec small animal MRI (7T) at P14 or P25 while under anesthesia by isoflurane. A warm pad was used to maintain body temperature. Breathing rate and heart rate were monitored to reflect the depth of anesthesia. All T2 images were acquired using the following criteria: TE/TR=60/4000; Ave=4; RARE=4; slice thickness=0.6 mm.
Constant aCSF infusion testing was performed as previously described (23). In summary, a single catheter was implanted into the lateral ventricle of a mouse under anesthesia. The catheter infused aCSF at a constant rate and monitored intracranial pressure (ICP). The Marmarou model of cerebrospinal fluid (CSF) dynamics for constant rate infusions were used to calculate parameters describing cerebrospinal fluid (CSF) dynamics by a non-linear least squares fit of the model to the intracranial pressure (ICP) data (62).

Compound: O=C(O)CN(CCOCCOCCN(CC(=O)O)CC(=O)O)CC(=O)O [EGTA, ethylene glycol-bis(β-aminoethyl ether)-N,N,N′,N′-tetraacetic acid]
epifluorescence calcium responses to plasma [1]: disrupted

Compound: NCCOB(c1ccccc1)c1ccccc1 [2-APB, 2-aminoethoxydiphenyl borate]
epifluorescence calcium responses to plasma [1]: disrupted

Compound: [Cl-].[Li+] [LiCl, lithium chloride]
NKCC1 phosphorylation rate (pNKCC1) [2]: decreased NKCC1 phosphorylation rate
ventriculomegaly ([3]; E14.5, ICV LiCl 30 min. prior to blood, vs controls, MRI): more pronounced ventriculomegaly
ventricular enlargement in two extreme cases ([3]; E14.5, LiCl pretreatment plus blood): over 200 fold
baseline intracranial pressure (ICP) ([3]; LiCl pretreatment alone): does not change
compliance ([3]; LiCl pretreatment alone): does not change
ventricle size ([3]; LiCl treatment alone): did not affect ventricle size
intracranial pressure (ICP) ([3]; LiCl-Blood mice compared to LiCl-PBS mice): unaltered
epifluorescence calcium responses to plasma [1]: disrupted

ventriculomegaly ([3]; E14.5, ICV injection of blood containing EDTA, 3 weeks after the injection): severe ventriculomegaly
Compound: O=C(O)CN(CCN(CC(=O)O)CC(=O)O)CC(=O)O [EDTA, ethylenediaminetetraacetic acid]
epifluorescence calcium responses to plasma [1]: disrupted

Compound: O=C(O)CN(CC(=O)O)c1ccccc1OCCOc1ccccc1N(CC(=O)O)CC(=O)O [BAPTA]
epifluorescence calcium responses to plasma [1]: disrupted
